Source: US12269797B2, “Bifunctional linker for bisconjugation, method of synthesis, and method of use” (priority 2020, dated 2025)

Test: Solubility of the bifunctional linker in solvents
Type: physicochemical

solubility (in DMSO or methanol): soluble | solubility (in hexanes or water): limited solubility
SMILES: C#CCOC(=O)c1ccc(C=O)c(C=O)c1 [Ib, Prop-2-yn-1-yl 3,4-diformylbenzoate]
